Earlier results, collected in patent US8124767B2, “Luminescence biotin-transition metal complex conjugate, and method of amplifying signal using the same” (Samsung Electronics Co., Ltd., priority 2008, dated 2012).
pKd: −log10 of the molar value. Like-named read-outs stand apart in the source and are kept apart here.

Key:
[1] = target: T1, avidin (Gallus gallus, UniProt P02701); details: HABA, comparison value; read-out: Kd (binding to avidin); cited from earlier work
T1 construct: purchased Aldrich

[2] = excitation 310 nm, 0.02 mM 2-MeTHF, cited from earlier work

T1 sequence (P02701 25-152): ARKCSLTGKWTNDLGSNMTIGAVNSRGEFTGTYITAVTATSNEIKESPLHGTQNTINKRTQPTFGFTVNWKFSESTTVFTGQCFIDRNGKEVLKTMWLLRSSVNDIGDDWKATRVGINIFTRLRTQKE

Compound	pKd [1]	T360 nm, lifetime of the donor peak ([2]; 77 K) [ns]	T411 nm, lifetime of the donor peak ([2]; 77 K) [s]	T360 nm, lifetime of the donor peak ([2]; 298 K) [ns]
O=C(O)c1ccccc1N=Nc1ccc(O)cc1 [HABA, 4,4′-hydroxyazobenzene-2-carboxylic acid]	5.22			
Cc1cc(-n2c3ccccc3c3ccccc32)cc(-n2c3ccccc3c3ccccc32)c1 [Probe 5mCP]		8.2	7.0	6.6
